Here are results for 22 compounds from patent publication US5684151A, “1-arylsulphonyl, arylcarbonyl and 1-arylphosphonyl-3-phenyl-1,4,5,6-tetrahydropyridazines” (priority 1995, dated 1997).

Like-named read-outs stand apart in the source and are kept apart here.

Assay [1] concerns the target T1, progestin receptor from rabbit uterus (Oryctolagus cuniculus, UniProt P06186).
T1 construct: Cytosolic progestin receptor were obtained by mixing rabbit uterine tissue with a Tris buffer; from tissue; host or cells: rabbit uterus cytosol
Nature of the assay: Progestin receptor binding (3H-R5020 displacement). The note with it: rabbit uterine cytosol, 4° C., 18 h, read-out: IC50: Binding affinity for the progestin receptor from rabbit uterus. On the procedure:
A progestin initiates a biological response by first binding to a progestin receptor. Affinity for progestin receptors was determined by measuring the ability of compounds to displace a progestin radioligand from those receptors in vitro. Cytosolic progestin receptor were obtained by mixing rabbit uterine tissue with a Tris buffer [0.1M Tris-Hcl, 1 mM Na2 EDTA, 1 mM dithiothreotol, 1 mM sodium molybdate, 1% glycerol, pH 7.4]. The tissue/buffer mixture was homogenized under ice-cold conditions. The homogenate was then centrifuged and the supernatant (cytosol preparation) was decanted and stored at -70° C. and thawed prior to use. The competitive binding assay was performed by mixing ^3 H-R5020, a progestin radioligand, with cytosol preparation and various concentrations of test compounds (prepared in DMSO with a final 5% DMSO concentration). This mixture was then incubated at 4° C. for about 18 hours. Non-specific binding was determined using an unlabelled ligand in excess. After the incubation period, the radioligand bound to receptor was separated from free radioligand using dextran-coated charcoal. The amount of bound radioligand was then determined by liquid scintillation counting. The data were expressed as the concentration of test compound that displaced 50% of the radioligand from the receptor (IC50)
Aspects of the application used in this procedure are described in the following: J. L. McGuire et al., Biochemistry 13, 319, 1974.

The subject of assay [2] is mouse (MC3T3-E1) and human (TE-85) osteoblast-line cells. In kind it is cell-based. The text has this: Compounds of the present invention have utility to treat osteoporosis through enhancement of bone calcification rather than traditional approaches which generally involve inhibition of bone degeneration or resorption. The compounds of the present invention have been evaluated as stimulators of proliferation of osteoblast cell and chick calivaria bone organ culture which is predictive of enhancement of bone mass and bone formation in vivo.
The action of select compounds to stimulate osteoblast growth was measured in culture by estimating the rate of DNA synthesis by the rate of ^3 H-thymidine incorporation into DNA. Only cells undergoing mitosis synthesized new DNA and thus only these cells incorporated the radiolabelled DNA-specific thymidine. The stimulation of the proliferation and differentiation of bone-forming cells, osteoblasts, was a prerequisite for an increase in bone formation and bone mass. The ability of agents to increase osteoblast proliferation and differentiation can be predicted by their action on cultured osteoblast-line cells in vitro. In this test, mouse (MC3T3-E1) and human (TE-85) osteoblast-line cells (American Type Tissue Culture Collection, #CRL 1543, Rockville, Md. cloned by Sudo et al., Koriyama, Japan) were cultured in vitro and the effect of various agents were tested on osteoblast cell proliferation. Cells were harvested from large culture flasks where they were allowed to grow to near confluency using trypsin. The cells were plated into 96 well culture plates, 1600 cells in 100 μL per well in Dulbencos Modified Eagle's Medium (DMEM) with 25 mM HEPES buffer, L-glutamine (584 mg/L); D-glucose (4.5 g/L) supplemented with fetal bovine sera (10%); penicillin (100 units/mL) and streptomycin (100 mcg/mL); sodium pyruvate (10 μM final concentration). The cells were allowed to plate overnight in DMEM containing 10% fetal bovine sera at 37° C. in an atmosphere of 5% CO2/95% air. Following their placement into 96 well culture plates all the osteoblast-line cells, either the MC3T3-E1 or the TE-85 cell lines, were allowed an additional 24 hours preincubation period in media containing only 0.1% fetal bovine sera.
Twenty hours later, a 20 μL aliquot of media containing 0.4 μCi of ^3 H-thymidine was added to each culture well. The cells were then incubated an additional 4 hours. The incubation was terminated by aspirating the media and washing with HBSS (Hank's Balanced Salt Solution). The cells were then treated with 100 μL of 0.5% trypsin and 5.3 mM EDTA for 30 minutes at room temperature. The cells were then aspirated onto glass fiber filter and washed with water. The radioactivity on the filters was quantified by liquid scintillation spectroscopy. The rate of ^3 H-thymidine incorporation into DNA was then utilized as an index of cell proliferation. The results are shown in Table 13 expressed as % times control where the control is 100%. […]

T1 sequence (P06186 whole entry): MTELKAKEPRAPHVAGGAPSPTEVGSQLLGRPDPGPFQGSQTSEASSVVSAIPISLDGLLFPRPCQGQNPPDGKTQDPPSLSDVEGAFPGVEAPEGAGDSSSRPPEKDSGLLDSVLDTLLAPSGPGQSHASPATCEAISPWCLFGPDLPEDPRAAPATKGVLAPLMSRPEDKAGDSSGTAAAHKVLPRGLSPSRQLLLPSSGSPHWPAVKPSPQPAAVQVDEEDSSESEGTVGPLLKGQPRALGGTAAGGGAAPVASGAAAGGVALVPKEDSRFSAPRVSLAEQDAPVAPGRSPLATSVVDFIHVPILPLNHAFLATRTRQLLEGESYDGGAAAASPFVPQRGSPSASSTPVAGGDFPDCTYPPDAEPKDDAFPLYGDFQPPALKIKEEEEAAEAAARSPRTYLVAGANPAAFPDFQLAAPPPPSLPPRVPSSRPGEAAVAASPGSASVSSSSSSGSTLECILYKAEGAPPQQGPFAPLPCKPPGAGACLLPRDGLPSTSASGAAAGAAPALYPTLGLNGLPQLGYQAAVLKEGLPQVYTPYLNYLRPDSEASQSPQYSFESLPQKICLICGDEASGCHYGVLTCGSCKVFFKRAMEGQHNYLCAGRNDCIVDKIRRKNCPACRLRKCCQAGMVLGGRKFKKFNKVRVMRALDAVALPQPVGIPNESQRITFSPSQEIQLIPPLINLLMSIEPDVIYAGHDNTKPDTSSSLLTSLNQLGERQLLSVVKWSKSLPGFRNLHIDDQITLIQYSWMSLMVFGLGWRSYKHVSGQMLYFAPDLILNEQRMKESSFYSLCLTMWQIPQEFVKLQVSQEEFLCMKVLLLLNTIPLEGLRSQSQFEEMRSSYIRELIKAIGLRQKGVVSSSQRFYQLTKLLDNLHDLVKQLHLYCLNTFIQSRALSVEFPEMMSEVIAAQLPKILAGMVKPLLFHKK

As to `Cc1ccc(S(=O)(=O)N2CCCC(c3ccccc3)=N2)cc1` [Compound 2], the IC50 in assay [1] was 3000 nM. The “Osteoblast Cell Proliferation, 3H-thymidine incorporation vs control (100%)” value (“Osteoblast Cell Proliferation … (100%)” for short) in assay [2] (10^-6) was 105%; in assay [2] (10^-7) it was 119%; in assay [2] (10^-8), 99%; in assay [2] (10^-9) it was 91%; in assay [2] (10^-10) it was 77%.
Consider `COc1ccc(C2=NN(S(=O)(=O)c3ccc(C)cc3)CCC2)cc1` [Compound 3], for which the IC50 in assay [1] was 10000 nM. Also, the “Osteoblast Cell Proliferation … (100%)” value in assay [2] (10^-6) was found to be 92%; in assay [2] (10^-7) it was 110%; in assay [2] (10^-8) it was 115%; in assay [2] (10^-9), 138%; in assay [2] (10^-10), 118%.
On to `O=[N+]([O-])c1ccc(S(=O)(=O)N2CCCC(c3ccc(Cl)cc3)=N2)cc1` [Compound 4], for which the IC50 in assay [1] is 201 nM. The “Osteoblast Cell Proliferation … (100%)” value in assay [2] (10^-6) is 108%; in assay [2] (10^-7), 111%; in assay [2] (10^-8) it was 155%; in assay [2] (10^-9) it was 153%; in assay [2] (10^-10) it was 158%.
For the compound `O=S(=O)(c1cc(Cl)ccc1Cl)N1CCCC(c2ccc(Cl)cc2)=N1` [Compound 5], the IC50 in assay [1] is 5.3 nM. Moreover, the “Osteoblast Cell Proliferation … (100%)” value in assay [2] (10^-6) was 89%; in assay [2] (10^-7) it was 106%; in assay [2] (10^-8) it was 124%; in assay [2] (10^-9), 108%; in assay [2] (10^-10), 114%.
With `O=S(=O)(c1ccc(Cl)cc1)N1CCCC(c2ccc(Cl)cc2)=N1` [Compound 6], the IC50 in assay [1] is 15 nM. In addition, the “Osteoblast Cell Proliferation … (100%)” value was found to be 81% in assay [2] (10^-6); 97% in assay [2] (10^-7); 106% in assay [2] (10^-8); 114% in assay [2] (10^-9); 121% in assay [2] (10^-10).
Take `Cc1ccc(S(=O)(=O)N2CCCC(c3ccc(F)cc3)=N2)cc1` [Compound 9]: the IC50 in assay [1] worked out at 362 nM. Also, the “Osteoblast Cell Proliferation … (100%)” value is 65% in assay [2] (10^-6); 94% in assay [2] (10^-7); 128% in assay [2] (10^-8); 102% in assay [2] (10^-9); 119% in assay [2] (10^-10).
Take `O=[N+]([O-])c1ccc(S(=O)(=O)N2CCCC(c3ccc(F)cc3)=N2)cc1` [Compound 10]: in assay [1], the IC50 was 1050 nM. The “Osteoblast Cell Proliferation … (100%)” value in assay [2] (10^-6) is on record as 91%; in assay [2] (10^-7) it was 90%; in assay [2] (10^-8), 123%; in assay [2] (10^-9) it was 115%; in assay [2] (10^-10), 139%.
In the case of `O=S(=O)(c1cc(Cl)ccc1Cl)N1CCCC(c2ccc(F)cc2)=N1` [Compound 11], in assay [1], the IC50 was 20 nM. Besides, the “Osteoblast Cell Proliferation … (100%)” value in assay [2] (10^-6) is reported as 106%; in assay [2] (10^-7), 135%; in assay [2] (10^-8), 156%; in assay [2] (10^-9), 131%; in assay [2] (10^-10) it was 154%.
As to `O=S(=O)(c1ccc(Br)cc1)N1CCCC(c2ccc(Cl)cc2)=N1` [Compound 13], the IC50 in assay [1] amounted to 9 nM. In addition, the “Osteoblast Cell Proliferation … (100%)” value is given as 88% in assay [2] (10^-6); 109% in assay [2] (10^-7); 114% in assay [2] (10^-8); 109% in assay [2] (10^-9); 152% in assay [2] (10^-10).
For `Cc1ccc(C(=O)N2CCCC(c3ccc(Cl)cc3)=N2)cc1` [Compound 146, 1-(4-Methylbenzoyl)-3-(4-chlorophenyl)-1,4,5,6-tetrahydropyridazine], in assay [1], the IC50 is 1000 nM.
Consider `O=S(=O)(c1ccc(I)cc1)N1N=C(c2ccc(Cl)cc2)CC2CC=CC21` (stereo not shown) [Compound 160, 3-(4-Chlorophenyl)-1-(4-iodobenzenesulfonyl)-4,4a,5,7a-tetrahydro-1H-cyclopenta[c]pyridiazine], for which the IC50 in assay [1] was found to be 32 nM.
Consider `O=S(=O)(c1ccc(I)cc1)N1CCC(Br)(Br)C(c2ccc(Cl)c(C(F)(F)F)c2)=N1` [Compound 162, 4,4-Dibromo-3-(4-chloro-3-trifluoromethylphenyl)-1-(4-iodobenzenesulfonyl)-1,4,5,6-tetrahydropyridazine], for which the IC50 in assay [1] was 3 nM.
Turning to `Cc1ccc(/C=C/S(=O)(=O)N2CCCC(c3ccc4ccccc4c3)=N2)cc1` [Compound 175], in assay [1], the IC50 was 6.2 nM.
Same read-out and setting: the result for `O=S(=O)(/C=C/c1ccc2ccccc2c1)N1CCCC(c2ccc(Cl)c(C(F)(F)F)c2)=N1` [Compound 177] reads 528 nM; that for `CN(C)c1ccc(C2=NN(S(=O)(=O)c3ccc(I)cc3)CCC2)cc1` [Compound 209, 1-(4-Iodobenzenesulfonyl)-3-(4-dimethylaminophenyl)-1,4,5,6-tetrahydropyridazine], 117 nM; that for `CN(C)c1ccc(C2=NN(S(=O)(=O)c3ccc(Br)cc3)CCC2)cc1` [Compound 213], 326 nM.
The same measure, in the same setting: the result for `O=[N+]([O-])c1ccc(C(=S)N2CCCC(c3ccc(Cl)c(Cl)c3)=N2)cc1` [Compound 242] reads 12 nM; that for `Fc1ccc(C(=S)N2CCCC(c3ccc(Cl)c(Cl)c3)=N2)cc1Br` [Compound 246], 114 nM.
Same read-out and setting: under `O=S(=O)(c1ccc(C(F)(F)C(F)(F)F)cc1)N1CCCC(c2ccc(Cl)c(Cl)c2)=N1` [Compound 272, 3-(3,4-Dichlorophenyl)-1-(4-pentafluoroethylbenzenesulfonyl)-1,4,5,6-tetrahydropyridazine] stands 329 nM.
In the case of `COC(=O)c1ccc(S(=O)(=O)N2CCCC(c3ccc(Cl)c(Cl)c3)=N2)cc1` [Compound 273, 3-(3,4-Dichlorophenyl)-1-(4-carbomethoxybenzesulfonyl)-1,4,5,6-tetrahydropyridazine], in assay [1], the IC50 came to 3.4 nM.
For `Nc1ccc(S(=O)(=O)N2CCCC(c3ccc(Cl)c(Cl)c3)=N2)cc1` [Compound 274, 1-(4-Aminobenzenesulfonyl)-3-(3,4-dichlorophenyl)-1,4,5,6-tetrahydropyridazine], the IC50 in assay [1] was 204 nM.
The same measure, in the same setting: the result for `O=S(=O)(/C=C/c1ccccc1)N1CCCC(c2ccc(Cl)c(C(F)(F)F)c2)=N1` [Compound 276] reads 53.9 nM.
